Experimental data: patent publication US6897306B2, “3-heterocyclylpropanohydroxamic acids” (Pfizer Products, Inc., priority 1999, dated 2005)
Where two headings read alike, the source gives them in different places. Where a SMILES comes first, the peptide text is derived from it. [ ]: non-standard residue; d: D form. The star is where a group is joined. Sta = CC(C)C[C@H](N)[C@@H](O)CC(=O)O; Isovaleryl = CC(C)CC(=O)*

Tests used:
[1] = test system: PCP; conditions: cited from earlier work
[2] = Dynamic Vapour Sorption (moisture sorption); type: physicochemical
Protocol: Melting points were determined using open glass capillary tubes and a Gallenkamp melting point apparatus and are uncorrected. Nuclear magnetic resonance (NMR) data were obtained using Varian Unity Inova-400, Varian Unity Inova-300 or Bruker AC300 spectrometers and are quoted in parts per million from tetramethylsilane. Mass spectral (MS) data were obtained on a Finnigan Mat. TSQ 7000 or a Fisons Instruments Trio 1000. The calculated and observed ions quoted refer to the isotopic composition of lowest mass. Infra red (1R) spectra were measured using a Nicolet Magna 550 Fourier transform infra-red spectrometer. Flash chromatography refers to column chromatography on silica gel (Kieselgel 60, 230-400 mesh, from E. Merck, Darmstadt. Kieselgel 60 F254 plates from E. Merck were used for TLC, and compounds were visualised using UV light, 5% aqueous potassium permanagate or Dragendorff's reagent (oversprayed with aqueous sodium nitrite). Thermal analyses by Differential Scanning Calorimetry (DSC) and ThermoGravimetric Analysis (TGA) were obtained using Perkin Elmer DSC7 and TGA7. Moisture sorption characteristics were recorded using Surface Measurement Systems Ltd. Automated Water Sorption Analyser DVS 1. Water content was determined on a Mitsubishi CA100 (Coulometric Karl Fisher Titrator). Powder X-ray diffraction (PXRD) pattern was determined using a Siemens D5000 powder X-ray diffractometer fitted with an automatic sample changer, a theta-theta goniometer, automatic beam divergence slits, a secondary monochromator and a scintillation counter. Other measurements were taken using standard equipment. Hexane refers to a mixture of hexanes (hplc grade) b.p. 65-70° C. Ether refers to diethyl ether. Acetic acid refers to glacial acetic acid. 1-Hydroxy-7-aza-1H-1,2,3-benzotriazole (HOAt), N-[(dimethylamino)-1H-1,2,3-triazolo[4,5-b]pyridin-1-ylmethylene]-N-methylmethaninium hexafluorophosphate N-oxide (HATU) and 7-azabenzotriazol-1-yloxytris(pyrrolidino)phosphonium hexafluorophosphate (PyAOP) were purchased from PerSeptive Biosystems U.K. Ltd. “DIPE” refers to diisopropyl ether. Reverse-phase silica gel for flash chromatography was obtained from Fluka (Fluka 100, C18, 40-63μ). Pentane refers to High Performance Liquid Chromatography (HPLC) grade n-pentane (b.pt.35-37° C.). Nomenclature has been allocated using a program available from IUPAC. Standard abbreviations are used throughout, e.g. “Me” is methyl, “Et” is ethyl, “Pr” is propyl, “Ph” is phenyl, etc. It was noticed that during certain repetitions of the methods disclosed in the Examples and Preparations that some racemisation appeared to have taken place. It was found in some cases that specific desired enantiomers can be separated from mixtures thereof by routine methods such as by differential crystallisation. • ^aHPLC autopurification performed using 2 columns—Phenomonex LUNA C8 150×21.2 mm, 10 μm and Phenomonex […] C18 150×21.2 mm, […], eluting with a gradient system of organic solvent [ammonium acetate (aq) 100 mM:acetonitrile (1:9)]:aqueous solvent [ammonium acetate (aq) 100 mM:acetonitrile (9:1)] • ^bHPLC autopurification performed using 2 columns—Phenomonex LUNA C8 150×21.2 mm, 10 μm and Phenomonex […] C18 150×21.2 mm, 5 μm, eluting with a gradient system of organic solvent (acetonitrile):aqueous solvent (0.1% aqueous trifluoroacetic acid)

Molecule | PCP inhibition (in words) ([1]; literature reports) | further results
CCCCCCCCCCCCOS(=O)(=O)[O-].[Na+] [SDS] | inhibitory at low concentrations | 
Tris-HCl [Tris-HCl buffer] |  | PCP inhibition (in words) ([1]; buffer concentration 0.2-0.5M): markedly inhibited activity
concanavalin A | inhibitory at low concentrations | 
N=C(N)NCCC[C@H](N)C(=O)O [arginine] | inhibited | 
CC(C)CC(=O)N[C@H](C(=O)N[C@H](C(=O)N[C@@H](CC(C)C)[C@@H](O)CC(=O)N[C@@H](C)C(=O)N[C@@H](CC(C)C)[C@@H](O)CC(=O)O)C(C)C)C(C)C [pepstatin A] (Isovaleryl-VV[Sta]A[Sta]-OH) | relatively strong inhibitors | 
[Zn+2] [Zn^2+] | inhibitory at low concentrations | 
O=C(C[C@@H](CCCC1CCCCC1)c1nc(C(=O)N2CC(N3CCOCC3)C2)no1)NO [Example 14, (3R)-6-Cyclohexyl-N-hydroxy-3-(3-{[3-(4-morpholinyl)-1-azetidinyl]carbonyl}-1,2,4-oxadiazol-5-yl)hexanamide] |  | melting point: 52 to 63 °C
[Cd+2] [Cd^2+] | inhibitory at low concentrations | 
CC(C)C[C@H](NC(=O)[C@@H](NC(=O)N[C@@H](Cc1ccccc1)C(=O)O)[C@@H]1CCN=C(N)N1)C(=O)N[C@H](C=O)Cc1ccccc1 [chymostatin] | relatively strong inhibitors | 
NC(=O)c1noc([C@H](CCCC2CCCCC2)CC(=O)NO)n1 [Example 2(c), 5-{(1R)-4-Cyclohexyl-1-[2-(hydroxyamino)-2-oxoethyl]butyl}-1,2,4-oxadiazole-3-carboxamide (Anhydrous)] |  | Dynamic Vapour Sorption ([2]; 15% RH (30° C.)): 0.18 % w/w; Dynamic Vapour Sorption ([2]; 30% RH (30° C.)): 0.23 % w/w; Dynamic Vapour Sorption, hydration behaviour ([2]; 60% RH (30° C.), converting to the monohydrate (XRD)): hydrates slowly; Dynamic Vapour Sorption, equilibrium ([2]; 90% RH (30° C.)): 5.3 % w/w
O=C(O)CNC(=O)c1noc([C@H](CCCC2CCCCC2)CC(=O)NO)n1 [Example 11, 2-{[(5-{(1R)-4-Cyclohexyl-1-[2-(hydroxyamino)-2-oxoethyl]butyl}-1,2,4-oxadiazol-3-yl)carbonyl]amino}acetic Acid] |  | melting point: 141 to 142 °C
NC(=O)c1noc([C@H](CCCC2CCCCC2)CC(=O)NO)n1 [Example 2(b), 5-{(1R)-4-Cyclohexyl-1-[2-(hydroxyamino)-2-oxoethyl]butyl}-1,2,4-oxadiazole-3-carboxamide Monohydrate] |  | Dynamic Vapour Sorption ([2]; 2% RH (30° C.)): 4.84 % w/w; Dynamic Vapour Sorption ([2]; 20% RH (30° C.)): 5.17 % w/w; Dynamic Vapour Sorption ([2]; below 1% RH (30° C.)): significant dehydration
[Cu+2] [Cu^2+] | inhibitory at low concentrations | 
NCCCC[C@H](N)C(=O)O [lysine] | inhibited | 
O[C@H](CS)[C@H](O)CS (racemic) [Dithiothreitol] | inhibitory at low concentrations | 
α2-Macroglobuline: protein reported to at least partially inhibit PCP activity (protein, UniProt P01023 24-1474, looked up) Alpha-2-macroglobulin: SVSGKPQYMVLVPSLLHTETTEKGCVLLSYLNETVTVSASLESVRGNRSLFTDLEAENDVLHCVAFAVPKSSSNEEVMFLTVQVKGPTQEFKKRTTVMVKNEDSLVFVQTDKSIYKPGQTVKFRVVSMDENFHPLNELIPLVYIQDPKGNRIAQWQSFQLEGGLKQFSFPLSSEPFQGSYKVVVQKKSGGRTEHPFTVEEFVLPKFEVQVTVPKIITILEEEMNVSVCGLYTYGKPVPGHVTVSICRKYSDASDCHGEDSQAFCEKFSGQLNSHGCFYQQVKTKVFQLKRKEYEMKLHTEAQIQEEGTVVELTGRQSSEITRTITKLSFVKVDSHFRQGIPFFGQVRLVDGKGVPIPNKVIFIRGNEANYYSNATTDEHGLVQFSINTTNVMGTSLTVRVNYKDRSPCYGYQWVSEEHEEAHHTAYLVFSPSKSFVHLEPMSHELPCGHTQTVQAHYILNGGTLLGLKKLSFYYLIMAKGGIVRTGTHGLLVKQEDMKGHFSISIPVKSDIAPVARLLIYAVLPTGDVIGDSAKYDVENCLANKVDLSFSPSQSLPASHAHLRVTAAPQSVCALRAVDQSVLLMKPDAELSASSVYNLLPEKDLTGFPGPLNDQDNEDCINRHNVYINGITYTPVSSTNEKDMYSFLEDMGLKAFTNSKIRKPKMCPQLQQYEMHGPEGLRVGFYESDVMGRGHARLVHVEEPHTETVRKYFPETWIWDLVVVNSAGVAEVGVTVPDTITEWKAGAFCLSEDAGLGISSTASLRAFQPFFVELTMPYSVIRGEAFTLKATVLNYLPKCIRVSVQLEASPAFLAVPVEKEQAPHCICANGRQTVSWAVTPKSLGNVNFTVSAEALESQELCGTEVPSVPEHGRKDTVIKPLLVEPEGLEKETTFNSLLCPSGGEVSEELSLKLPPNVVEESARASVSVLGDILGSAMQNTQNLLQMPYGCGEQNMVLFAPNIYVLDYLNETQQLTPEIKSKAIGYLNTGYQRQLNYKHYDGSYSTFGERYGRNQGNTWLTAFVLKTFAQARAYIFIDEAHITQALIWLSQRQKDNGCFRSSGSLLNNAIKGGVEDEVTLSAYITIALLEIPLTVTHPVVRNALFCLESAWKTAQEGDHGSHVYTKALLAYAFALAGNQDKRKEVLKSLNEEAVKKDNSVHWERPQKPKAPVGHFYEPQAPSAEVEMTSYVLLAYLTAQPAPTSEDLTSATNIVKWITKQQNAQGGFSSTQDTVVALHALSKYGAATFTRTGKAAQVTIQSSGTFSSKFQVDNNNRLLLQQVSLPELPGEYSMKVTGEGCVYLQTSLKYNILPEKEEFPFALGVQTLPQTCDEPKAHTSFQISLSVSYTGSRSASNMAIVDVKMVSGFIPLKPTVKMLERSNHVSRTEVSSNHVLIYLDKVSNQTLSLFFTVLQDVPVRDLKPAIVKVYDYYETDEFAIAEYNAPCSKDLGNA | at least partially inhibit | 
ovostatin: protein reported to at least partially inhibit PCP activity (protein, UniProt P20740 37-1473, looked up) Ovostatin: KEPEPQYVLMVPAVLQSDSPSQVCLQFFNLNQTISVRVVLEYDTINTTIFEKNTTTSNGLQCLNFMIPPVTSVSLAFISFTAKGTTFDLKERRSVMIWNMESFVFVQTDKPIYKPGQSVMFRVVALDFNFKPVQEMYPLIAVQDPQNNRIFQWQNVTSEINIVQIEFPLTEEPILGNYKIIVTKKSGERTSHSFLVEEYVLPKFDVTVTAPGSLTVMDSELTVKICAVYTYGQPVEGKVQLSVCRDFDSYGRCKKSPVCQSFTKDLDTDGCLSHILSSKVFELNRIGYKRNLDVKAIVTEKEQVCNLTATQSISITQVMSSLQFENVDHHYRRGIPYFGQIKLVDKDNSPISNKVIQLFVNNKNTHNFTTDINGIAPFSIDTSKIFDPELSLKALYKTSDQCHSEGWIEPSYPDASLSVQRLYSWTSSFVRIEPLWKDMSCGQKRMITVYYILNTEGYEHINIVNFYYVGMAKGKIVLTGEIKVNIQADQNGTFMIPLVVNEKMAPALRLLVYMLHPAKELVADSVRFSIEKCFKNKVQLQFSEKQMLTTSNVSLVIEAAANSFCAVRAVDKSMLLLKSETELSAETIYNLHPIQDLQGYIFNGLNLEDDPQDPCVSSDDIFHKGLYYRPLTSGLGPDVYQFLRDMGMKFFTNSKIRQPTVCTRETVRPPSYFLNAGFTASTHHVKLSAEVAREERGKRHILETIREFFPETWIWDIILINSTGKASVSYTIPDTITEWKASAFCVEELAGFGMSVPATLTAFQPFFVDLTLPYSIIHGEDFLVRANVFNYLNHCIKINVLLLESLDYQAKLISPEDDGCVCAKIRKSYVWNIFPKGTGDVLFSITAETNDDEACEEEALRNIRIDYRDTQIRALLVEPEGIRREETQNFLICMKDDVISQDVAIDLPTNVVEGSPRPSFSVVGDIMGTAIQNVHQLLQMPFGNGEQNMVLFAPNIYVLDYLDKTRQLSEDVKSKTIGYLVSGYQKQLSYKHPDGSYSTFGIRDKEGNTWLTAFVYKSFAEASRFIYIDDNVQAQTLIWLATKQKTDGCFQSTGILVNNAMKGGVENELSLSAYITIALLEAGHSMSHTVIRNAFYCLETASEKNITDIYTQALVAYAFCLAGKAEICESFLRELQKSAKEVDGSKYWEQNQRSAPEKSHLLDHVQSTDVEITSYVLLALLYKPNRSQEDLTKASAIVQWIIRQQNSYGGFASMQDTVVALQALAAYGAATYNSVTQNVIKINSKNTFEKVFTVNNENRLLLQQTPLPQVPGKYSLTVNGTGCVLIQTALRYNIHLPEGAFGFSLSVQTSNASCPRDQPGKFDIVLISSYTGKRSSSNMVIIDVKMLSGFVPVKSSLDQLIDDHTVMQVEYKKNHVLLYLGNILQKRRKEVTFSVEQDFVVTHPKPAPVQIYDYYETEEYAVAEYMSLCRGVVEEMG | at least partially inhibit | 
